From the supplement of paper PMC10307832

How the values were obtained:
Test in all cases: relative viability (nuclei count vs DMSO), 5 days (fraction); higher = more cells survive
NCI-H727 = system: NCI-H727
Procedure, shortened: (§1)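 The day after seeding in 1536-well plates, lung cancer cell lines were treated by pin tool with a single drug, or with a fixed anchor-drug dose together with five library-drug doses (not always all listed) in √10 steps. After 5 days, a combined fix-and-stain solution (final 0.05% Triton X-100, 1% formaldehyde, 1 ug/ml Hoechst) was added. Nuclei counted on 4× images gave relative viability as treated counts over vehicle counts, reported as the median of duplicate plates.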

NCI-H650 = system: NCI-H650
Procedure, shortened: as §1

NCI-H1755 = system: NCI-H1755
Procedure, shortened: as §1

SW 900 = system: SW 900
Procedure, shortened: as §1

NCI-H1437 = system: NCI-H1437
Procedure, shortened: as §1

NCI-H2126 = system: NCI-H2126
Procedure, shortened: as §1

NCI-H358 = system: NCI-H358
Procedure, shortened: as §1

NCI-H2170 = system: NCI-H2170
Procedure, shortened: as §1

NCI-H1734 = system: NCI-H1734
Procedure, shortened: as §1

BEN = system: BEN
Procedure, shortened: as §1

LU99A = system: LU99A
Procedure, shortened: as §1

SW 1573 = system: SW 1573
Procedure, shortened: as §1

HCC-44 = system: HCC-44
Procedure, shortened: as §1

EMC-BAC-2 = system: EMC-BAC-2
Procedure, shortened: as §1

NCI-H2023 = system: NCI-H2023
Procedure, shortened: as §1

NCI-H3122 = system: NCI-H3122
Procedure, shortened: as §1

LC-2-ad = system: LC-2-ad
Procedure, shortened: as §1

HCC-15 = system: HCC-15
Procedure, shortened: as §1

HOP-62 = system: HOP-62
Procedure, shortened: as §1

NCI-H1915 = system: NCI-H1915
Procedure, shortened: as §1

NCI-H1395 = system: NCI-H1395
Procedure, shortened: as §1

CCNC(=O)c1noc(-c2cc(C(C)C)c(O)cc2O)c1-c1ccc(CN2CCOCC2)cc1 [Luminespib] + CC(=O)Nc1cccc(-n2c(=O)n(C3CC3)c(=O)c3c(Nc4ccc(I)cc4F)n(C)c(=O)c(C)c32)c1 [Trametinib] (partner 0.02 µM)
relative viability (NCI-H727; first compound 0.002 µM): 0.422 | relative viability (NCI-H727; first compound 0.006325 µM): 0.397 | relative viability (NCI-H727; first compound 0.02 µM): 0.404 | relative viability (NCI-H727; first compound 0.06325 µM): 0.247 | relative viability (NCI-H727; first compound 0.2 µM): 0.253 | relative viability (NCI-H650; first compound 0.002 µM): 1.06 | relative viability (NCI-H650; first compound 0.006325 µM): 0.881 | relative viability (NCI-H650; first compound 0.02 µM): 0.629 | relative viability (NCI-H650; first compound 0.06325 µM): 0.262 | relative viability (NCI-H650; first compound 0.2 µM): 0.086 | relative viability (NCI-H1755; first compound 0.002 µM): 0.783 | relative viability (NCI-H1755; first compound 0.006325 µM): 0.733 | relative viability (NCI-H1755; first compound 0.02 µM): 0.691 | relative viability (NCI-H1755; first compound 0.06325 µM): 0.765 | relative viability (NCI-H1755; first compound 0.2 µM): 0.701 | relative viability (SW 900; first compound 0.002 µM): 0.837 | relative viability (SW 900; first compound 0.006325 µM): 0.919 | relative viability (SW 900; first compound 0.02 µM): 0.659 | relative viability (SW 900; first compound 0.06325 µM): 0.165 | relative viability (SW 900; first compound 0.2 µM): 0.131 | relative viability (NCI-H1437; first compound 0.002 µM): 0.595 | relative viability (NCI-H1437; first compound 0.006325 µM): 0.52 | relative viability (NCI-H1437; first compound 0.02 µM): 0.492 | relative viability (NCI-H1437; first compound 0.06325 µM): 0.325 | relative viability (NCI-H1437; first compound 0.2 µM): 0.217 | relative viability (NCI-H2126; first compound 0.002 µM): 0.608 | relative viability (NCI-H2126; first compound 0.006325 µM): 0.608 | relative viability (NCI-H2126; first compound 0.06325 µM): 0.667 | relative viability (NCI-H2126; first compound 0.2 µM): 0.599 | relative viability (NCI-H358; first compound 0.002 µM): 0.142 | relative viability (NCI-H358; first compound 0.006325 µM): 0.133 | relative viability (NCI-H358; first compound 0.02 µM): 0.0934 | relative viability (NCI-H358; first compound 0.06325 µM): 0.0702 | relative viability (NCI-H358; first compound 0.2 µM): 0.0715 | relative viability (NCI-H2170; first compound 0.002 µM): 0.915 | relative viability (NCI-H2170; first compound 0.006325 µM): 0.932 | relative viability (NCI-H2170; first compound 0.06325 µM): 0.896 | relative viability (NCI-H2170; first compound 0.2 µM): 0.841 | relative viability (NCI-H1734; first compound 0.002 µM): 0.65 | relative viability (NCI-H1734; first compound 0.006325 µM): 0.586 | relative viability (NCI-H1734; first compound 0.02 µM): 0.579 | relative viability (NCI-H1734; first compound 0.06325 µM): 0.199 | relative viability (NCI-H1734; first compound 0.2 µM): 0.172 | relative viability (BEN; first compound 0.002 µM): 1.11 | relative viability (BEN; first compound 0.006325 µM): 1 | relative viability (BEN; first compound 0.02 µM): 0.481 | relative viability (BEN; first compound 0.06325 µM): 0.748 | relative viability (BEN; first compound 0.2 µM): 0.341 | relative viability (LU99A; first compound 0.002 µM): 0.534 | relative viability (LU99A; first compound 0.006325 µM): 0.493 | relative viability (LU99A; first compound 0.02 µM): 0.378 | relative viability (LU99A; first compound 0.06325 µM): 0.482 | relative viability (LU99A; first compound 0.2 µM): 0.507 | relative viability (SW 1573; first compound 0.002 µM): 0.604 | relative viability (SW 1573; first compound 0.006325 µM): 0.483 | relative viability (SW 1573; first compound 0.02 µM): 0.198 | relative viability (SW 1573; first compound 0.06325 µM): 0.105 | relative viability (SW 1573; first compound 0.2 µM): 0.096 | relative viability (HCC-44; first compound 0.002 µM): 0.979 | relative viability (HCC-44; first compound 0.006325 µM): 1.19 | relative viability (HCC-44; first compound 0.02 µM): 1.24 | relative viability (HCC-44; first compound 0.06325 µM): 0.982 | relative viability (HCC-44; first compound 0.2 µM): 0.775 | relative viability (EMC-BAC-2; first compound 0.002 µM): 0.857 | relative viability (EMC-BAC-2; first compound 0.02 µM): 0.643 | relative viability (EMC-BAC-2; first compound 0.06325 µM): 0.619 | relative viability (EMC-BAC-2; first compound 0.2 µM): 0.247 | relative viability (NCI-H2023; first compound 0.002 µM): 0.49 | relative viability (NCI-H2023; first compound 0.006325 µM): 0.56 | relative viability (NCI-H2023; first compound 0.02 µM): 0.39 | relative viability (NCI-H2023; first compound 0.06325 µM): 0.0742 | relative viability (NCI-H2023; first compound 0.2 µM): 0.0679 | relative viability (NCI-H3122; first compound 0.002 µM): 0.179 | relative viability (NCI-H3122; first compound 0.006325 µM): 0.27 | relative viability (NCI-H3122; first compound 0.02 µM): 0.141 | relative viability (NCI-H3122; first compound 0.06325 µM): 0.242 | relative viability (NCI-H3122; first compound 0.2 µM): 0.186 | relative viability (LC-2-ad; first compound 0.002 µM): 0.926 | relative viability (LC-2-ad; first compound 0.006325 µM): 0.903 | relative viability (LC-2-ad; first compound 0.02 µM): 1.06 | relative viability (LC-2-ad; first compound 0.06325 µM): 0.889 | relative viability (LC-2-ad; first compound 0.2 µM): 0.647 | relative viability (HCC-15; first compound 0.002 µM): 0.394 | relative viability (HCC-15; first compound 0.006325 µM): 0.364 | relative viability (HCC-15; first compound 0.02 µM): 0.391 | relative viability (HCC-15; first compound 0.06325 µM): 0.258 | relative viability (HCC-15; first compound 0.2 µM): 0.13 | relative viability (HOP-62; first compound 0.002 µM): 0.37 | relative viability (HOP-62; first compound 0.006325 µM): 0.351 | relative viability (HOP-62; first compound 0.02 µM): 0.311 | relative viability (HOP-62; first compound 0.06325 µM): 0.309 | relative viability (HOP-62; first compound 0.2 µM): 0.183 | relative viability (NCI-H1915; first compound 0.002 µM): 0.316 | relative viability (NCI-H1915; first compound 0.006325 µM): 0.287 | relative viability (NCI-H1915; first compound 0.02 µM): 0.244 | relative viability (NCI-H1915; first compound 0.06325 µM): 0.254 | relative viability (NCI-H1915; first compound 0.2 µM): 0.161 | relative viability (NCI-H1395; first compound 0.002 µM): 0.994 | relative viability (NCI-H1395; first compound 0.006325 µM): 1.05 | relative viability (NCI-H1395; first compound 0.02 µM): 0.827 | relative viability (NCI-H1395; first compound 0.06325 µM): 0.35 | relative viability (NCI-H1395; first compound 0.2 µM): 0.379
